Results: US8906909B2 (Curis, Inc., priority 2009, dated 2014)

Key:
[1] = tested on: HDACs (HeLa cell nuclear extracts); experiment: HDAC enzymatic activity, Biomol Color de Lys system; type: biochemical
Method in brief: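 HeLa nuclear extract as HDAC source with Color de Lys substrate in 50 mM Tris/Cl pH 8.0, 137 mM NaCl, 2.7 mM KCl, 1 mM MgCl2. Serially diluted compounds reacted 1 h at 25 °C, then developer added; fluorescence (Ex 350–380/Em 440–460) fitted sigmoidally for IC50.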

IC50 [1] | melting point | SMILES
< 100 nM | 224 to 226 °C | CCCN(Cc1cc2nc(-c3cccc4[nH]ncc34)nc(N3CCOCC3)c2s1)c1ncc(C(=O)NO)cn1 [Compound 84, 2-(((2-(1H-indazol-4-yl)-4-morpholinothieno[3,2-d]pyrimidin-6-yl)methyl)(propyl)amino)-N-hydroxypyrimidine-5-carboxamide]
< 100 nM | 234 to 236 °C | CCCCN(Cc1cc2nc(-c3cccc4[nH]ncc34)nc(N3CCOCC3)c2s1)c1ncc(C(=O)NO)cn1 [Compound 85, 2-(((2-(1H-indazol-4-yl)-4-morpholinothieno[3,2-d]pyrimidin-6-yl)methyl)(butyl)amino)-N-hydroxypyrimidine-5-carboxamide]
100 to 1000 nM | 196 to 198 °C | CC(C)CN(Cc1cc2nc(-c3cccc4[nH]ncc34)nc(N3CCOCC3)c2s1)c1ncc(C(=O)NO)cn1 [Compound 93, 2-(((2-(1H-indazol-4-yl)-4-morpholinothieno[3,2-d]pyrimidin-6-yl)methyl)(isobutyl)amino)-N-hydroxypyrimidine-5-carboxamide]
> 10000 nM | 115 to 118 °C | CN(CCCC(=O)NO)Cc1cc2nc(-c3cccc4[nH]ncc34)nc(N3CCOCC3)c2s1 [Compound 101, 4-(((2-(1H-indazol-4-yl)-4-morpholinothieno[3,2-d]pyrimidin-6-yl)methyl)(methyl)amino)-N-hydroxybutanamide]
100 to 1000 nM | 120 to 122 °C | CN(CCCCC(=O)NO)Cc1cc2nc(-c3cccc4[nH]ncc34)nc(N3CCOCC3)c2s1 [Compound 102, 5-(((2-(1H-indazol-4-yl)-4-morpholinothieno[3,2-d]pyrimidin-6-yl)methyl)(methyl)amino)-N-hydroxypentanamide]
< 100 nM | 183 to 185 °C | CC(=O)Nc1cccc(-c2nc(N3CCOCC3)c3sc(CN(C)c4ncc(C(=O)NO)cn4)cc3n2)c1 [Compound 107, 2-(((2-(3-acetamidophenyl)-4-morpholinothieno[3,2-d]pyrimidin-6-yl)methyl)(methyl)amino)-N-hydroxypyrimidine-5-carboxamide]
< 100 nM | 190 to 195 °C | CN(C)c1ccc(-c2nc(N3CCOCC3)c3sc(CN(C)c4ncc(C(=O)NO)cn4)cc3n2)cn1 [Compound 114, 2-(((2-(6-(dimethylamino)pyridin-3-yl)-4-morpholinothieno[3,2-d]pyrimidin-6-yl)methyl)(methyl)amino)-N-hydroxypyrimidine-5-carboxamide]
< 100 nM | 159 to 160 °C | CN(Cc1cc2nc(-c3cncnc3)nc(N3CCOCC3)c2s1)c1ncc(C(=O)NO)cn1 [Compound 119, N-hydroxy-2-(methyl((4-morpholino-2-(pyrimidin-5-yl)thieno[3,2-d]pyrimidin-6-yl)methyl)amino)pyrimidine-5-carboxamide]
< 100 nM | 153 to 156 °C | CCc1ncc(-c2nc(N3CCOCC3)c3sc(CN(C)c4ncc(C(=O)NO)cn4)cc3n2)cn1 [Compound 121, 2-(((2-(2-ethylpyrimidin-5-yl)-4-morpholinothieno[3,2-d]pyrimidin-6-yl)methyl)(methyl)amino)-N-hydroxypyrimidine-5-carboxamide]
< 100 nM | > 300 °C | CN(Cc1cc2nc(-c3cnc(CN)nc3)nc(N3CCOCC3)c2s1)c1ncc(C(=O)NO)cn1 [Compound 124, 2-(((2-(2-(aminomethyl)pyrimidin-5-yl)-4-morpholinothieno[3,2-d]pyrimidin-6-yl)methyl)(methyl)amino)-N-hydroxypyrimidine-5-carboxamide]
< 100 nM | 199 to 200 °C | CN(Cc1cc2nc(-c3ccccc3)nc(N3CCOCC3)c2s1)c1ncc(C(=O)NO)cn1 [Compound 129, N-hydroxy-2-(methyl((4-morpholino-2-phenylthieno[3,2-d]pyrimidin-6-yl)methyl)amino)pyrimidine-5-carboxamide]
< 100 nM | 179 to 181 °C | COc1cccc(-c2nc(N3CCOCC3)c3sc(CN(C)c4ncc(C(=O)NO)cn4)cc3n2)c1 [Compound 130, N-hydroxy-2-(((2-(3-methoxyphenyl)-4-morpholinothieno[3,2-d]pyrimidin-6-yl)methyl)(methyl)amino)pyrimidine-5-carboxamide]
< 100 nM | 173 to 176 °C | CN(Cc1cc2nc(-c3ccccc3CO)nc(N3CCOCC3)c2s1)c1ncc(C(=O)NO)cn1 [Compound 141, N-hydroxy-2-(((2-(2-(hydroxymethyl)phenyl)-4-morpholinothieno[3,2-d]pyrimidin-6-yl)methyl)(methyl)amino)pyrimidine-5-carboxamide]
< 100 nM | 215 to 217 °C | CNC(=O)c1cccc(-c2nc(N3CCOCC3)c3sc(CN(C)c4ncc(C(=O)NO)cn4)cc3n2)c1 [Compound 144, N-hydroxy-2-(methyl((2-(3-(methylcarbamoyl)phenyl)-4-morpholinothieno[3,2-d]pyrimidin-6-yl)methyl)amino)pyrimidine-5-carboxamide]
< 100 nM | 214 to 216 °C | CN(Cc1cc2nc(-c3ccc(C#N)cc3)nc(N3CCOCC3)c2s1)c1ncc(C(=O)NO)cn1 [Compound 146, 2-(((2-(4-cyanophenyl)-4-morpholinothieno[3,2-d]pyrimidin-6-yl)methyl)(methyl)amino)-N-hydroxypyrimidine-5-carboxamide]

The remaining lines, values behind:

SMILES | IC50 [1] | melting point
CC(C)(C)CN(Cc1cc2nc(-c3cccc4[nH]ncc34)nc(N3CCOCC3)c2s1)c1ncc(C(=O)NO)cn1 [Compound 83, 2-(((2-(1H-indazol-4-yl)-4-morpholinothieno[3,2-d]pyrimidin-6-yl)methyl)(neopentyl)amino)-N-hydroxypyrimidine-5-carboxamide] | 1000 to 10000 nM | 240 to 242 °C
CN(CCCCCC(=O)NO)Cc1cc2nc(-c3cccc4[nH]ncc34)nc(N3CCOCC3)c2s1 [Compound 103, 6-(((2-(1H-indazol-4-yl)-4-morpholinothieno[3,2-d]pyrimidin-6-yl)methyl)(methyl)amino)-N-hydroxyhexanamide] | < 100 nM | 115 to 118 °C
CN(CCCCCCC(=O)NO)Cc1cc2nc(-c3cccc4[nH]ncc34)nc(N3CCOCC3)c2s1 [Compound 104, 7-(((2-(1H-indazol-4-yl)-4-morpholinothieno[3,2-d]pyrimidin-6-yl)methyl)(methyl)amino)-N-hydroxyheptanamide] | 100 to 1000 nM | 131 to 133 °C
CN(C)c1cccc(-c2nc(N3CCOCC3)c3sc(CN(C)c4ncc(C(=O)NO)cn4)cc3n2)c1 [Compound 108, 2-(((2-(3-(dimethylamino)phenyl)-4-morpholinothieno[3,2-d]pyrimidin-6-yl)methyl)(methyl)amino)-N-hydroxypyrimidine-5-carboxamide] | < 100 nM | 172 to 175 °C
CC(=O)Nc1ccc(-c2nc(N3CCOCC3)c3sc(CN(C)c4ncc(C(=O)NO)cn4)cc3n2)cn1 [Compound 112, 2-(((2-(6-acetamidopyridin-3-yl)-4-morpholinothieno[3,2-d]pyrimidin-6-yl)methyl)(methyl)amino)-N-hydroxypyrimidine-5-carboxamide] | < 100 nM | 197 to 201 °C
CN(Cc1cc2nc(-c3ccc(O)cc3)nc(N3CCOCC3)c2s1)c1ncc(C(=O)NO)cn1 [Compound 133, N-hydroxy-2-(((2-(4-hydroxyphenyl)-4-morpholinothieno[3,2-d]pyrimidin-6-yl)methyl)(methyl)amino)pyrimidine-5-carboxamide] | < 100 nM | 185 to 195 °C
CN(Cc1cc2nc(-c3cccc(N)c3)nc(N3CCOCC3)c2s1)c1ncc(C(=O)NO)cn1 [Compound 134, 2-(((2-(3-aminophenyl)-4-morpholinothieno[3,2-d]pyrimidin-6-yl)methyl)(methyl)amino)-N-hydroxypyrimidine-5-carboxamide] | < 100 nM | 179 to 182 °C
CN(Cc1cc2nc(-c3ccc(CN)cc3)nc(N3CCOCC3)c2s1)c1ncc(C(=O)NO)cn1 [Compound 135, 2-(((2-(4-(aminomethyl)phenyl)-4-morpholinothieno[3,2-d]pyrimidin-6-yl)methyl)(methyl)amino)-N-hydroxypyrimidine-5-carboxamide] | < 100 nM | 184 to 186 °C
CN(Cc1cc2nc(-c3cccc(CN)c3)nc(N3CCOCC3)c2s1)c1ncc(C(=O)NO)cn1 [Compound 137, 2-(((2-(3-(aminomethyl)phenyl)-4-morpholinothieno[3,2-d]pyrimidin-6-yl)methyl)(methyl)amino)-N-hydroxypyrimidine-5-carboxamide] | < 100 nM | 173 to 176 °C
COCc1cccc(-c2nc(N3CCOCC3)c3sc(CN(C)c4ncc(C(=O)NO)cn4)cc3n2)c1 [Compound 139, N-hydroxy-2-(((2-(3-(methoxymethyl)phenyl)-4-morpholinothieno[3,2-d]pyrimidin-6-yl)methyl)(methyl)amino)pyrimidine-5-carboxamide] | < 100 nM | 178 to 181 °C
CN(Cc1cc2nc(-c3ccc(CO)cc3)nc(N3CCOCC3)c2s1)c1ncc(C(=O)NO)cn1 [Compound 140, N-hydroxy-2-(((2-(4-(hydroxymethyl)phenyl)-4-morpholinothieno[3,2-d]pyrimidin-6-yl)methyl)(methyl)amino)pyrimidine-5-carboxamide] | < 100 nM | 218 to 223 °C
CN(Cc1cc2nc(-c3ccc(C(N)=O)cc3)nc(N3CCOCC3)c2s1)c1ncc(C(=O)NO)cn1 [Compound 143, 2-(((2-(4-carbamoylphenyl)-4-morpholinothieno[3,2-d]pyrimidin-6-yl)methyl)(methyl)amino)-N-hydroxypyrimidine-5-carboxamide] | < 100 nM | 200 to 202 °C
